Source: US20240285566A1, “SUBCUTANEOUS FORMULATION AND METHODS FOR TREATING EDEMA REFRACTORY TO ORAL DIURETICS” (RESQ Pharmaceuticals LLC, priority 2021, published 2024)

Tests used:
[1] = Solubility of bumetanide free acid in water with and without tetradecyl-β-D-maltoside (HPLC); type: physicochemical
Procedure: Bumetanide, 10 mg, in its free acid form was added to 1 mL of deionized water and mixed using a vortex and sonicator. The solution was filtered using a 0.22 μm nylon syringe filter. To 900 μL deionized water, 100 μL of the filtered bumetanide solution was added before being characterized for the concentration of the bumetanide in solution using HPLC. The concentration of bumetanide was determined using a standard curve generated by bumetanide solutions of known concentrations. […] Therefore, to the 10 mg of bumetanide, 1 mL of deionized water containing 1.0%, 0.5% or 0.1% of the surfactant tetradecyl-β-D-maltoside. The bumetanide was then solubilized using a vortex and sonicator, after which it was filtered using a 0.22 μm nylon syringe filter. To 900 μL deionized water, 100 μL of the filtered bumetanide solution was added before being characterized for the concentration of the bumetanide in solution using HPLC. The resulting bumetanide concentrations are recorded in Table 1.

in vivo = assay: in vivo; set-up: species or system beagle dogs; details: dog
Procedure: The purpose of this study was to assess the pharmacokinetic profiles of various formulations of bumetanide, including arginine bumetanide salts (FS-5 and FS-6) and potassium bumetanide salts (FS-3 and FS-4) for subcutaneous administration, and an bumetanide intranasal formulation (F82), which are described in Table 60, when each formulation is administered as a single subcutaneous, or intranasal in different vehicles when compared to single IV administration dose in male and female beagle dogs.
A total of four dogs were assigned to the study (3 males, 9-13 kg and 1 female, 7-10 kg) ranging from 1 to 3 years old.
The study was conducted in 6 Events in the same animals, separated by at least 48 hours or more washout period between events.
For subcutaneous administration the bumetanide formulations were injected subcutaneously (100 μL/dog), using a 25G hypodermic needle. After each application, successful dosing was verified by visual inspection of the dog injection site and after 1 minute of dosing. Only successful administrations will be accepted.
For intranasal administration, each dog was held in an upright position with the nose pointing up. The test article (50 μL) was delivered into each nostril (total 100 μL/dog). The nose was held pointing up for ˜60 seconds after dosing. After each application, successful dosing was verified by visual inspection of the pipette tip and the dog nostril.
For intravenous administration, the commercially available injection of bumetanide (Walgreens, 0.25 mg/mL) was used and administered via the cephalic vein over a period of 30 seconds (4.0 mL/dog, IV).
Body weights of the dogs were measured for each dog prior to each dose on the day of dose, and approximately 48 hours post-dose for each event. For some events, the 48 hour post-dose weight was the same weight as the pre-dose weight for the following dose. Urine production was also monitored post-dose to assess diuresis by making observations at 30 minutes, 1, 2, 3 and 4 hours post-dose. Urine volume was not measured. On each day of dosing, blood (˜600 μL/timepoint, jugular or cephalic vein) were collected in red top tubes with clotting activator (Sarstedt, Inc-41.1392.105 or similar) to obtain serum at the times described in Table 61. Blood was centrifuged at 5000×g for 10 minutes at 4° C. If the samples were collected outside the collection window, they were not be considered a protocol deviation. Serum was divided into 2 aliquots of ˜150 μL each and stored frozen at −20° C. until it was shipped to Climax Laboratories, Inc. on dry ice.

[2] = Stability of arginine and potassium bumetanide salts over four weeks; type: physicochemical; details: for stability of the salt solution: at either 5° C. or 25° C.
Procedure: The stability of the arginine and potassium bumetanide salts was monitored over a four week period with storage at either 2-8° C. or 25° C. for that time period. The bumetanide salt solutions were evaluated on the basis of pH, concentration of bumetanide in solution, the percent assay recovery and the presence of an impurity (see Tables 17 and 18).

| SMILES | Assay ([2]; 1 week at 5° C.) [mg/mL] | pH ([2]; 1 week at 5° C.) | Assay ([2]; 1 week at 25° C.) [mg/mL] | pH ([2]; 1 week at 25° C.) | Assay ([2]; 2 weeks at 5° C.) [mg/mL] | pH ([2]; 2 weeks at 5° C.) | Assay ([2]; 2 weeks at 25° C.) [mg/mL] | pH ([2]; 2 weeks at 25° C.) | Assay ([2]; 4 weeks at 5° C.) [mg/mL] | pH ([2]; 4 weeks at 5° C.) | Assay ([2]; 4 weeks at 25° C.) [mg/mL] | pH ([2]; 4 weeks at 25° C.) | Assay ([2]; T0) [mg/mL] | Osmolality ([2]; T0) [mOsm/kg] | Viscosity ([2]; T0) [cP] | pH ([2]; T0) | stability of the salt solution [2] | other results |
| --- | --- | --- | --- | --- | --- | --- | --- | --- | --- | --- | --- | --- | --- | --- | --- | --- | --- | --- |
| CCCCNc1cc(C(=O)O)cc(S(N)(=O)=O)c1Oc1ccccc1 [Bumetanide] |  |  |  |  |  |  |  |  |  |  |  |  |  |  |  |  |  | solubility in water ([1]; free acid form, deionized water, no surfactant): Nearly no bumetanide in the free acid form was soluble water; solubility in water ([1]; not in a salt form, in the presence of surfactant): incredibly low solubility in water; AUC (in vivo; beagle, iv, 1 mg): 140 ng·h/mL; AUC (in vivo; beagle, iv, 1 mg, AUC (ng*h/mL)): 140 ng·h/mL; AUC (in vivo; both sexes, beagle, iv, 1 mg): 185 ng·h/mL; AUC(0-t) (in vivo; both sexes, beagle, iv, 1 mg): 185 ng·h/mL; AUC (in vivo; both sexes, beagle, iv, 1 mg, AUC (ng*h/mL)): 185 ng·h/mL |
| CCCCNc1cc(C(=O)O)cc(S(N)(=O)=O)c1Oc1ccccc1.N=C(N)NCCCC(N)C(=O)O [arginine bumetanide salt] | 5.08 | 7.0 | 5.06 | 7.1 | 4.99 | 7.0 | 4.97 | 7.0 | 4.89 | 7.0 | 4.97 | 7.1 | 5.07 | 335 | 1.3 | 7.0 | stable for up to four weeks | impurity by HPLC ([2]; initially or after four weeks, 5° C. and 25° C.): no impurity was detected |
| CCCCNc1cc(C(=O)[O-])cc(S(N)(=O)=O)c1Oc1ccccc1.[K+] [potassium bumetanide salt] | 5.18 | 7.0 | 5.10 | 7.0 | 4.97 | 7.0 | 4.96 | 7.1 | 5.00 | 7.0 | 5.03 | 7.1 | 5.10 | 317 | 1.3 | 7.0 | stable for up to four weeks | serum concentrations compared to IV administration of bumetanide (in vivo): higher serum concentrations |
